Reference: US8664221B2 (Santen Pharmaceutical Co., Ltd., priority 2008, dated 2014)

Columns and labels:
[1] = system: IL-6 production induced by lipopolysaccharide (LPS) in human corneal epithelial cells (HCE-T); test: Inhibition of LPS-induced IL-6 production in human corneal epithelial cells (GR agonist activity); format: cell-based; conditions: Corneal epithelial cell, 10 μL of 100 μM test compound solution per well, 4 hours incubation, efficacy relative to DEX
Procedure: In order to evaluate a GR agonist activity of the present compound, the inhibitory effects on the IL-6 production induced by lipopolysaccharide (LPS) in human corneal epithelial cells. IL-6 levels in the conditioned medium were measured using the HTRF human IL-6 Kit (boehringer-Ingelheim, Cat No. 62IL6PEB), and the procedure was carried out according to the protocol attached to the kit. Hereinafter, the specific method will be described.
LPS solution: After LPS was dissolved in phosphate buffer solution (hereinafter referred to as PBS(−)), the resulting solution was diluted with 10% FBS-DMEM/F12 medium, whereby a 1 μg/mL LPS solution was prepared.
After a test compound was dissolved in dimethylsulfoxide (hereinafter referred to as DMSO), the resulting solution was diluted with 10% FBS-DMEM/F12 medium, whereby a 100 μM test compound solution was prepared. A 100 μM DEX solution was prepared by the same method, and the inhibitory ratio of IL-6 production of DEX was evaluated to use for calculating efficacy (% DEX).
Used cell: SV40-immortalized human corneal epithelial cells (HCE-T) (RIKEN)
1) HCE-T cells were harvested, and seeded at 2.0×10^4 cells/0.1 mL/well in a 96-well plate.
2) After incubation overnight, the medium was removed and a 80 μL of new 10% FBS-DMEM/Ham's F12 medium was added into each well.
3) A 10 μL of test compounds solution was added into each well.
4) A 10 μL of LPS solution was added into each well.
5) As a negative control, a 10 μL of 10% FBS-DMEM/Ham's F12 medium was added into each well instead of a test compound solution and a LPS solution.
6) As a positive control, a 10 μL of 10% FBS-DMEM/Ham's F12 medium containing 1% DMSO was added into each well instead of a test compound solution.
7) After 4 hours incubation, supernatants were collected and IL-6 levels in the supernatants were quantitated using the HTRF human IL-6 Kit.
8) The inhibition ratio of IL-6 production (%) was calculated according to the following equation.
The inhibition ratio of IL-6 production (%) was calculated according to the following equation. The inhibition ratio of IL-6 production (%)=100×{1−(IL-6 level in each group−mean value of IL-6 level in negative control)/(mean value of IL-6 level in positive control−mean value of IL-6 level in negative control)} (%)
Furthermore, the inhibition ratio of IL-6 production (efficacy (% DEX)) was also calculated according to the following equation. Efficacy(% DEX)=100×{(mean value of IL-6 inhibition in compound-treated group)/(mean value of IL-6 inhibition in DEX-treated group)} (%) (Results and Discussion)

[2] = system: choroidal neovascularization (CNV) model in rats; test: Laser induced choroidal neovascularization model; format: in vivo; conditions: Brown Norway male rats; 1% (w/v) eye drops four times a day or 20 mg/mL subconjunctival injection (route not given); fluorescein angiography 7 days after laser; mean of 7-8 eyes
Procedure: The choroidal neovascularization (CNV) model in rats is known as one of the popular methods for evaluating the CNV inhibitory effect of drugs. This method is reported in Graefe's Arch. Cli. Exp. Ophthalmol., 235, 313-319 (1997). According to this method, the CNV examinations were performed to evaluate the CNV inhibitory effect of test compounds by comparing the incidence rates of CNV in vehicle group (control group) with test compound-treated groups.
For eye drop administration, a 1% (w/v) test compound suspension was prepared by adding 0.5% polysorbate 80/saline to the test compound. For subconjunctival injection, a 20 mg/mL test compound suspension was prepared by adding 0.5% hydrogenated castor oil/saline to the test compound.
1) Brown Norway male rats (7-8 weeks) were anesthetized with intramuscular injection (1 mL/kg) of the mixed solution (5% ketamine HCl:2% xylazine HCl=7:1).
2) After mydriasis using tropicamide phenylephrine hydrochloride eye drops (trade name Mydrin P), laser photocoagulation of bruch's membrane in rats was performed with krypton laser photocoagulation machine. Laser irradiation was performed at 8 points per eye avoiding thick retinal blood vessels in ocular fundus and focusing on the depth of retina. The conditions were 100 μm spot size, 100 mW power, 0.1 second duration.
3) After laser photocoagulation, photographs of ocular fundus were taken and the laser photocoagulation (laser irradiation) points were confirmed.
1) In case of eye drops administration, a test compound suspension was administrated four times a day from laser irradiation day (the 1st day) to the 8th day. In case of subconjunctival injection, a 50 μL test compound suspension was injected into conjunctivae just after laser irradiation.
2) In vehicle group (control group), 0.5% polysorbate 80/saline or 0.5% hydrogenated castor oil/saline was used instead of a test compound suspension. And the test was performed according to the method 1).
1) 7 days after laser irradiation, 0.1 mL of 10% fluorescein was injected into rat tail vein and fluorescein angiography was performed.
2) When the fluorescent leakage was not detected in the fluorescent angiography, the spot was judged to be a negative spot. When the fluorescent leakage was detected, the spot was judged to be a positive spot. When the fluorescent leakage was detected as a little leakage, two spots were counted as one positive spot.
3) The neovascular incidence rate was calculated according to the equation 1. According to the equation 2, the ratio of neovascular incidence rate in test compound group to vehicle group was calculated. Neovascular incidence rate (%)=(Positive spots/all spots)×100 (Equation 1) Angiogenic inhibition ratio in test compound group (%)=(1−Ax/Ao)×100 (Equation 2)
Ao: Neovascular incidence rate in vehicle group (control group)
Ax: Neovascular incidence rate in test compound group

[3] = system: carrageenan-induced paw edema model in rats; test: Carrageenan-induced paw edema model; format: in vivo; conditions: female Lewis rat; 10 mg/kg oral, 30 minutes before carrageenan; paw volume 3 hr after injection; read-out: Inhibition ratio of paw edema (%)
Procedure: The inhibitory effect for paw edema using carrageenan-induced paw edema model in rats is known as one of the general methods for testing the inhibitory effect on inflammation on the joint and the like. Therefore, the inhibitory effect of the present compound for paw edema was carried out, the inhibition rate of paw edema was calculated, and then the anti-inflammatory effect of the present compound was evaluated based on the rate. The concrete method of the test is described below.
A 2 mg/mL test compound suspension was prepared by adding 1% methyl cellulose (base) to the test compound.
1) The weight and right hind paw volume of female Lewis rat (8˜10 weeks) were measured before drug administration.
2) The test compound suspension was administered at 10 mg/kg to the test compound group. Meanwhile, 1% methyl cellulose was administered orally at 5 mL/kg to the sham-operation group and vehicle group (control group).
3) After 30 minutes from oral administration, 0.1 mL of a 1% w/v carrageenan/distilled water solution was subcutaneously injected into right foot pad. 0.1 mL of distilled water was subcutaneously injected for sham-operation group.
4) The right hind paw volume was measured 3 hr after injection of carrageenan or distilled water.
(Formulation Concerning Estimation of Drug Activity) The increase ratio of paw volume (%)=100×(right hind paw volume 3 hr after injection of carrageenan or distilled water (mL)−right hind paw volume before the test compound administration (mL))/right hind paw volume before the test compound administration (mL) (Calculation Equation 1) The inhibition ratio of paw edema (%)=100−100×(the increase ratio of paw volume of each test compound group (%)−the increase ratio of paw volume of sham-operation group (%))/(the increase of paw volume of vehicle group (%)−the increase of paw volume of sham-operation group (%)) (Calculation Equation 2) (Test Results and Discussion)

[4] = system: allergic conjunctivitis model in mice; test: Inhibitory effect on vascular hyper-permeability in allergic conjunctivitis model; format: in vivo; conditions: male BALB/c mice, ovalbumin-sensitized; 1% (W/V) suspension instilled 15 min, 1 hr and 3 hrs before ovalbumin; Evans blue dye leakage; mean of 6 eyes
Procedure: In order to evaluate anti-allergic effect of the present compound, the inhibitory effect on the vascular hyper-permeability in allergic conjunctivitis model in mice was examined. This effect was calculated based on dye leakages of vehicle-treated group (control group) and test compound-treated group.
By adding 0.5% polysorbate 80/saline to the test compound, a 1% (W/V) test compound suspension was prepared.
1) Ovalbumin absorbed on aluminum hydroxide gel was dissolved in saline (20 μg ovalbumin/mL), and male BALB/c mice, 6 weeks old, were actively sensitized to the antigen by intraperitoneal injections of 500 μL of it.
2) On the 6th day from sensitization, sensitized mice were boosted by additional intraperitoneal injections of 500 μL ovalbumin absorbed on aluminum hydroxide gel (20 μg ovalbumin/mL).
3) On the 11th day, 12th day, 13th day, 14th day and 15th day from the first sensitization, allergic conjunctivitis were induced by instillations to the right eyes of the mice of […] of 50% glycerol solution containing 15% (W/V) ovalbumin.
4) […] of test compound suspension per eye was instilled to the right eye of the above mice 15 min, 1 hr and 3 hrs before ovalbumin instillation (three times) on the 15th day from sensitization. In vehicle-treated group (control group), the mice were instilled with 0.5% polysorbate 80/saline in substitution for test compound suspension.
5) Just before ovalbumin instillation on the 15th day from sensitization, all animals received a tail intravenous injection of 0.1% Evans blue dye. The right periocular tissues of the mice, which were the leaked parts of dye, were collected 30 min after ovalbumin instillation. The dye was extracted from the tissues with the dye extraction liquid. Then the absorbance of the dye extract was measured. The dye leakage was calculated from the absorbance value, and the inhibition ratio of the vascular hyper-permeability of test compound-treated group was calculated according to calculation equation 1. The inhibition ratio of the vascular hyper-permeability of test compound-treated group (%)=(1−Ax/Ao)×100 (Calculation Equation 1) • Ao: Dye leakage in vehicle-treated group (control group) • Ax: Dye leakage in test compound-treated group (Test Results and Discussion)

SMILES	Emax [1]	Angiogenic inhibition ratio (%) [2]	inhibition in vivo at 10 mg/kg [3]	The inhibition ratio of the vascular hyper-permeability (%) [4]
COc1cc(OS(=O)(=O)C2CCCC2)ccc1-c1ccc2c(c1CNc1cc(F)ccc1C)N(C)C(=O)C(C)(C)N2 [Compound No. 1-43, 7-(4-cyclopentylsulfonyloxy-2-methoxyphenyl)-8-(5-fluoro-2-methyl-phenylaminomethyl)-1,3,3-trimethyl-3,4-dihydro-1H-quinoxalin-2-one]	82%	18%		
CCCS(=O)(=O)Oc1ccc(-c2ccc3c(c2COc2cc([N+](=O)[O-])ccc2C)N(C)C(=O)C(C)(C)N3)c(OC)c1 [Compound No. 1-38, 7-(2-Methoxy-4-propylsulfonyloxyphenyl)-8-(2-methyl-5-nitrophenoxy-methyl)-1,3,3-trimethyl-3,4-dihydro-1H-quinoxalin-2-one]	94%	33%	50%	
COc1cc(OS(C)(=O)=O)ccc1-c1ccc2c(c1COc1cc(F)ccc1C)N(C)C(=O)C(C)(C)N2 [Compound No. 1-1, 8-(5-Fluoro-2-methylphenoxymethyl)-7-(2-methoxy-4-methylsulfonyloxyphenyl)-1,3,3-trimethyl-3,4-dihydro-1H-quinoxalin-2-one]	92%	31%		36%
COc1ccccc1NCc1c(-c2ccc(OS(=O)(=O)C3CC3)cc2OC)ccc2c1N(C)C(=O)C(C)(C)N2 [Compound No. 2-2, 7-(4-Cyclopropylsulfonyloxy-2-methoxyphenyl)-8-(2-methoxy-phenylaminomethyl)-1,3,3-trimethyl-3,4-dihydro-1H-quinoxalin-2-one]	86%	41%	51%	
COc1cc(OS(=O)(=O)C2CC2)ccc1-c1ccc2c(c1COc1cc(F)ccc1C)N(C)C(=O)C(C)(C)N2 [Compound No. 1-13, 7-(4-Cyclopropylsulfonyloxy-2-methoxyphenyl)-8-(5-fluoro-2-methyl-phenoxymethyl)-1,3,3-trimethyl-3,4-dihydro-1H-quinoxalin-2-one]	100%	38%	67%	
